{"source": "patent US20240166646A1", "about": "“1H-PYRROLO[2,3-B]PYRIDINE DERIVATIVES AS BCL-2 INHIBITORS FOR THE TREATMENT OF NEOPLASTIC AND AUTOIMMUNE DISEASES” (Newave Pharmaceutical Inc., priority 2020, published 2024)", "key": {"Bcl-2": {"biological_target": "Bcl-2 (Homo sapiens (Human), UniProt P10415)", "sequence (P10415 whole entry)": "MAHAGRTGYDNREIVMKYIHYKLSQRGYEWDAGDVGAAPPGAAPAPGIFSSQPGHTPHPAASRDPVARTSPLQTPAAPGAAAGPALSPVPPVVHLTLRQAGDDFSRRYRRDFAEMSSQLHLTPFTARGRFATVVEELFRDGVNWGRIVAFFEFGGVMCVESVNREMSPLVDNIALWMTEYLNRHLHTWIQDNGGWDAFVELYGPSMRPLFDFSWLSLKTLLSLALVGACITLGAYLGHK", "experiment": "Bcl-2 competition binding (fluorescence polarization) assay", "settings": "fluorescein labeled BH3 peptide 15 nM, Bcl-2 protein 30 nM, 3 hours of incubation at room temperature", "experimental": "Biological Example 1: Bcl-2 Competition Binding (Fluorescence Polarization) Assay\nThe fluorescence-labeled 23 amino acid peptide BH3 was purchased from CalBiochem ([…]). […] This binding assay was performed in 96-well plate and with each assay contained 15 and 30 nM of labeled peptide and purified Bcl-2 protein (purchased from R&D Systems, Inc). The assay buffer contained 20 mM Hepes (pH 7.0), 50 mM KCl, 5 mM MgCl2, 20 mM Na2MoO4, 0.1 mg/mi Bovine Gamma Globulin and 0.01% NP40. Compounds were diluted in DMS0 and added to the final assay with concentration range from 20 μM to 2 nM. The polarization degree (mP) value was determined by BioTek Synergy II with background subtraction after 3 hours of incubation at room temperature. IC50 was calculated using Prism software with sigmoidal dose-response curve fitting. ABT-737 was used as reference compound. Such assays, carried out with a range of doses of test compounds, allowed the determination of an approximate IC50 value."}, "[1]": {"tested_on": "BCL-2-dependent acute lymphoblastic leukemia (ALL) cell line RS4; 11 with G101V mutation", "experiment": "In vitro anti-proliferation assay (ATPlite) in RS4; 11 with G101V mutation", "assay_type": "cell-based", "settings": "about 72 hours incubation, medium with 5% FBS or 10% normal human serum, ATPlite luminescence", "experimental": "Cell antiproliferation was assayed by PerkinElmer ATPlite™ Luminescence Assay System. Briefly, the various test cancer cell lines were plated at a density of about 1×10^4 cells per well in Costar 96-well plates, and were incubated with different concentrations of compounds for about 72 hours in medium supplemented with 5% FBS or 10% normal human serum (NHS). One lyophilized substrate solution vial was then reconstituted by adding 5 mL of substrate buffer solution, and was agitated gently until the solution was homogeneous. About 50 μL of mammalian cell lysis solution was added to 100 μL of cell suspension per well of a microplate, and the plate was shaken for about five minutes in an orbital shaker at ˜700 rpm. This procedure was used to lyse the cells and to stabilize the ATP. Next, 50 μL substrate solution was added to the wells and microplate was shaken for five minutes in an orbital shaker at ˜700 rpm. Finally, the luminescence was measured by a PerkinElmer TopCount® Microplate Scintillation Counter. Such assays, carried out with a range of doses of test compounds, allowed the determination of the cellular anti-antiproliferative IC50 of the compounds of the present invention."}}, "note": "Structures can show the parent of a compound that is named as a salt."}
{"smiles": "CC(C)c1ccsc1[C@@H]1CCCN1C1CC2(CCN(c3ccc(C(=O)NS(=O)(=O)c4ccc(NCC5CCOCC5)c([N+](=O)[O-])c4)c(N4c5cc6cc[nH]c6nc5O[C@@H]5COC[C@H]54)c3)CC2)C1", "note": "[Example 63, 4-(2-((S)-2-(3-isopropylthiophen-2-yl)pyrrolidin-1-yl)-7-azaspiro[3.5]nonan-7-yl)-N-((3-nitro-4-(((tetrahydro-2H-pyran-4-yl)methyl)amino)phenyl)sulfonyl)-2-((5aR,8aS)-5a,6,8,8a-tetrahydrofuro[3,4-b]pyrrolo[3′,2′:5,6]pyrido[3,2-e][1,4]oxazin-5(1H)-yl)benzamide hydrochloride]", "values": [{"measurement": "IC50", "setting": "Bcl-2", "value": 0.314, "unit": "nM"}, {"measurement": "IC50", "setting": "[1]; RS4-11", "value": 49.6, "unit": "nM"}]}
{"smiles": "CC(C)c1ccccc1[C@@H]1CCCN1C1CC2(CCN(c3ccc(C(=O)NS(=O)(=O)c4ccc(NC[C@H]5CC[C@@](C)(O)CC5)c([N+](=O)[O-])c4)c(N4c5cc6cc[nH]c6nc5O[C@@H]5COC[C@H]54)c3)CC2)C1", "note": "[Example 3-0B]", "values": [{"measurement": "IC50", "setting": "Bcl-2", "value": 0.13, "unit": "nM"}, {"measurement": "IC50", "setting": "[1]", "value": 25, "unit": "nM"}]}
{"smiles": "CC(C)Oc1ccccc1[C@@H]1CCCN1C1CC2(CCN(c3ccc(C(=O)NS(=O)(=O)c4ccc(NCC5CCC(C)(O)CC5)c([N+](=O)[O-])c4)c(N4c5cc6cc[nH]c6nc5O[C@@H]5COC[C@H]54)c3)CC2)C1", "note": "(stereo partly drawn) [Example 44, N-((4-((((1s,4s)-4-hydroxy-4-methylcyclohexyl)methyl)amino)-3-nitrophenyl)sulfonyl)-4-(2-((S)-2-(2-isopropoxyphenyl)pyrrolidin-1-yl)-7-azaspiro[3.5]nonan-7-yl)-2-((5aR,8aS)-5a,6,8,8a-tetrahydrofuro[3,4-b]pyrrolo[3′,2′:5,6]pyrido[3,2-e][1,4]oxazin-5(1H)-yl)benzamide]", "values": [{"measurement": "IC50", "setting": "Bcl-2", "value": 0.179, "unit": "nM"}, {"measurement": "IC50", "setting": "[1]", "value": 98.3, "unit": "nM"}]}
{"smiles": "Cc1ccccc1[C@@H]1CCCN1C1CC2(CCN(c3ccc(C(=O)NS(=O)(=O)c4ccc(NCC5CCOCC5)c([N+](=O)[O-])c4)c(N4C[C@H]5CCOC[C@@H]5Oc5nc6[nH]ccc6cc54)c3)CC2)C1", "note": "[Example 68, 2-[(3R,8R)-2,5-dioxa-10,16,18-triazatetracyclo[9.7.0.0^{3,8}.0^{13,17}]octadeca-1(11),12,14,17-tetraen-10-yl]-4-{2-[(2S)-2-(2-methylphenyl)pyrrolidin-1-yl]-7-azaspiro[3.5]nonan-7-yl}-N-{3-nitro-4-[(oxan-4-ylmethyl)amino]benzenesulfonyl}benzamide]", "values": [{"measurement": "IC50", "setting": "Bcl-2", "value": 0.303, "unit": "nM"}, {"measurement": "IC50", "setting": "[1]", "value": 40.7, "unit": "nM"}]}
{"smiles": "Cc1ccccc1[C@H]1COCCCN1C1CC2(CCN(c3ccc(C(=O)NS(=O)(=O)c4ccc(NCC5CCOCC5)c([N+](=O)[O-])c4)c(N4c5cc6cc[nH]c6nc5O[C@@H]5COC[C@H]54)c3)CC2)C1", "note": "[Example 66, 2-[(11R,15S)-13,16-dioxa-2,4,10-triazatetracyclo[7.7.0.0^{3,7}.0^{11,15}]hexadeca-1(9),2,5,7-tetraen-10-yl]-4-{2-[(3S)-3-(2-methylphenyl)-1,4-oxazepan-4-yl]-7-azaspiro[3.5]nonan-7-yl}-N-{3-nitro-4-[(oxan-4-ylmethyl)amino]benzenesulfonyl}benzamide]", "values": [{"measurement": "IC50", "setting": "Bcl-2", "value": 0.564, "unit": "nM"}, {"measurement": "IC50", "setting": "[1]", "value": 296, "unit": "nM"}]}
{"smiles": "CC(C)Oc1ccccc1[C@@H]1CCCN1C1CC2(CCN(c3ccc(C(=O)NS(=O)(=O)c4ccc(NC[C@H]5COCCO5)c([N+](=O)[O-])c4)c(N4c5cc6cc[nH]c6nc5O[C@@H]5COC[C@H]54)c3)CC2)C1", "note": "[Example 43, N-((4-((((S)-1,4-dioxan-2-yl)methyl)amino)-3-nitrophenyl)sulfonyl)-4-(2-((S)-2-(2-isopropoxyphenyl)pyrrolidin-1-yl)-7-azaspiro[3.5]nonan-7-yl)-2-((5aR,8aS)-5a,6,8,8a-tetrahydrofuro[3,4-b]pyrrolo[3′,2′:5,6]pyrido[3,2-e][1,4]oxazin-5(1H)-yl)benzamide]", "values": [{"measurement": "IC50", "setting": "Bcl-2", "value": 0.28, "unit": "nM"}, {"measurement": "IC50", "setting": "[1]; RS4-11", "value": 86.4, "unit": "nM"}]}
{"smiles": "CC(C)Nc1ccccc1[C@@H]1CCCN1C1CC2(CCN(c3ccc(C(=O)NS(=O)(=O)c4ccc(NCC5CCOCC5)c([N+](=O)[O-])c4)c(N4c5cc6cc[nH]c6nc5O[C@@H]5COC[C@H]54)c3)CC2)C1", "note": "[Example 21, 2-[(11R,15S)-13,16-dioxa-2,4,10-triazatetracyclo[7.7.0.0^{3,7}.0^{11,15}]hexadeca-1(9),2,5,7-tetraen-10-yl]-4-{2-[(2S)-2-[2-(isopropylamino)phenyl]pyrrolidin-1-yl]-7-azaspiro[3.5]nonan-7-yl}-N-{3-nitro-4-[(oxan-4-ylmethyl)amino]benzenesulfonyl}benzamide hydrochloride]", "values": [{"measurement": "IC50", "setting": "Bcl-2", "value": 0.239, "unit": "nM"}]}
{"smiles": "CC(C)Cc1ccccc1[C@@H]1CCCN1C1CC2(CCN(c3ccc(C(=O)NS(=O)(=O)c4ccc(NCC5CCOCC5)c([N+](=O)[O-])c4)c(N4c5cc6cc[nH]c6nc5O[C@@H]5COC[C@H]54)c3)CC2)C1", "note": "[Example 35, 4-(2-((S)-2-(2-isobutylphenyl)pyrrolidin-1-yl)-7-azaspiro[3.5]nonan-7-yl)-N-((3-nitro-4-(((tetrahydro-2H-pyran-4-yl)methyl)amino)phenyl)sulfonyl)-2-((5aR,8aS)-5a,6,8,8a-tetrahydrofuro[3,4-b]pyrrolo[3′,2′:5,6]pyrido[3,2-e][1,4]oxazin-5(1H)-yl)benzamide]", "values": [{"measurement": "IC50", "setting": "Bcl-2", "value": 0.58, "unit": "nM"}]}
{"smiles": "O=C(NS(=O)(=O)c1ccc(NCC2CCOCC2)c([N+](=O)[O-])c1)c1ccc(N2CCC3(CC2)CC(N2CCC[C@H]2c2ccccc2Cl)C3)cc1N1c2cc3cc[nH]c3nc2O[C@@H]2COC[C@H]21", "note": "[Example 23, 4-{2-[(2S)-2-(2-chlorophenyl)pyrrolidin-1-yl]-7-azaspiro[3.5]nonan-7-yl}-2-[(11R,15S)-13,16-dioxa-2,4,10-triazatetracyclo[7.7.0.0^{3,7}.0^{11,15}]hexadeca-1(9),2,5,7-tetraen-10-yl]-N-{3-nitro-4-[(oxan-4-ylmethyl)amino]benzenesulfonyl}benzamide hydrochloride]", "values": [{"measurement": "IC50", "setting": "Bcl-2", "value": 0.587, "unit": "nM"}]}
{"smiles": "O=C(NS(=O)(=O)c1ccc(NCC2CCOCC2)c([N+](=O)[O-])c1)c1ccc(N2CCC3(CC2)CC(N2CCC[C@H]2c2ccccc2C2CCC2)C3)cc1N1c2cc3cc[nH]c3nc2O[C@@H]2COC[C@H]21", "note": "[Example 22, 4-{2-[(2S)-2-(2-cyclobutylphenyl)pyrrolidin-1-yl]-7-azaspiro[3.5]nonan-7-yl}-2-[(11R,15S)-13,16-dioxa-2,4,10-triazatetracyclo[7.7.0.0^{3,7}.0^{11,15}]hexadeca-1(9),2,5,7-tetraen-10-yl]-N-{3-nitro-4-[(oxan-4-ylmethyl)amino]benzenesulfonyl}benzamide]", "values": [{"measurement": "IC50", "setting": "Bcl-2", "value": 0.1, "unit": "nM"}]}
{"smiles": "O=C(NS(=O)(=O)c1ccc(NCC2CCOCC2)c([N+](=O)[O-])c1)c1ccc(N2CCC3(CC2)CC(N2CCC[C@H]2c2ccccc2-c2ccncc2)C3)cc1N1c2cc3cc[nH]c3nc2O[C@@H]2COC[C@H]21", "note": "[Example 14, 2-[(11R,15S)-13,16-dioxa-2,4,10-triazatetracyclo[7.7.0.0^{3,7}.0^{11,15}]hexadeca-1(9),2,5,7-tetraen-10-yl]-N-{3-nitro-4-[(oxan-4-ylmethyl)amino]benzenesulfonyl}-4-{2-[(2S)-2-[2-(pyridin-4-yl)phenyl]pyrrolidin-1-yl]-7-azaspiro[3.5]nonan-7-yl}benzamide hydrochloride]", "values": [{"measurement": "IC50", "setting": "Bcl-2", "value": 0.74, "unit": "nM"}]}
{"smiles": "O=C(NS(=O)(=O)c1ccc(NCC2CCOCC2)c([N+](=O)[O-])c1)c1ccc(N2CCC3(CC2)CC(N2CCC[C@H]2c2ccccc2-c2ccccn2)C3)cc1N1c2cc3cc[nH]c3nc2O[C@@H]2COC[C@H]21", "note": "[Example 18, 2-[(11R,15S)-13,16-dioxa-2,4,10-triazatetracyclo[7.7.0.0^{3,7}.0^{11,15}]hexadeca-1(9),2,5,7-tetraen-10-yl]-N-{3-nitro-4-[(oxan-4-ylmethyl)amino]benzenesulfonyl}-4-{2-[(2S)-2-[2-(pyridin-2-yl)phenyl]pyrrolidin-1-yl]-7-azaspiro[3.5]nonan-7-yl}benzamide]", "values": [{"measurement": "IC50", "setting": "Bcl-2", "value": 0.42, "unit": "nM"}]}
{"smiles": "CC1(C)C[C@H](c2ccccc2[C@@H]2CCCN2C2CC3(CCN(c4ccc(C(=O)NS(=O)(=O)c5ccc(NCC6CCOCC6)c([N+](=O)[O-])c5)c(N5c6cc7cc[nH]c7nc6O[C@@H]6COC[C@H]65)c4)CC3)C2)CCO1", "note": "[Example 32, 4-{2-[(2S)-2-{2-[(4R)-2,2-dimethyloxan-4-yl]phenyl}pyrrolidin-1-yl]-7-azaspiro[3.5]nonan-7-yl}-2-[(11R,15S)-13,16-dioxa-2,4,10-triazatetracyclo[7.7.0.0^{3,7}.0^{11,15}]hexadeca-1(9),2,5,7-tetraen-10-yl]-N-{3-nitro-4-[(oxan-4-ylmethyl)amino]benzenesulfonyl}benzamide]", "values": [{"measurement": "IC50", "setting": "Bcl-2", "value": 15.8, "unit": "nM"}]}
